COc1ccccc1/C=C/C(=O)O
logP: 2.54

COc1cccc([C@]2(O)CCCC[C@H]2CN(C)C)c1 (relative stereo)
logP: 2.51

OC(c1ccccc1)C(O)c1ccccc1 (stereo not drawn)
logP: 1.91

C=C[C@H]1CN2CC[C@H]1C[C@@H]2[C@@H](O)c1ccnc2ccccc12
logP: 2.68

NC1C2CCC1c1ccccc12 (stereo not drawn)
logP: 2.01

NC1CCc2ccccc2C1O (stereo not drawn)
logP: 0.81

O=[N+]([O-])c1ccc(O[C@@H]2O[C@H](CO)[C@H](O)[C@H](O)[C@H]2O)cc1
logP: -0.63

CC(=O)OC1(c2ccccc2)CCN(C)C(C)C1C (stereo not drawn)
logP: 2.51

CCC(=O)O[C@]1(c2ccccc2)C[C@H](C)N(C)C[C@H]1C
logP: 3.13

CCC(=O)OC1(c2ccccc2)CCN(C)C(C)C1C (stereo not drawn)
logP: 2.97

NC1C2CCC1c1cccc(C(F)(F)F)c1C2 (stereo not drawn)
logP: 3.41

NC1C2CCC1c1cc(C(F)(F)F)ccc1C2 (stereo not drawn)
logP: 3.45

C=CCC1CN(C)CCC1(OC(=O)CC)c1ccccc1 (stereo not drawn)
logP: 2.97

NC1C2CCC1c1ccccc1C2 (stereo not drawn)
logP: 2.04

NC1C2CCC1c1ccc(C(F)(F)F)cc1C2 (stereo not drawn)
logP: 3.54

C[C@H](N)[C@H](O)c1ccccc1 (relative stereo)
logP: 0.67

Cc1cc(=O)oc2ccc(O[C@@H]3O[C@H](CO)[C@@H](O)[C@H](O)[C@H]3O)cc12
logP: -0.66

CCC(=O)OC1(c2ccccc2)CCN(C)CC1C (stereo not drawn)
logP: 2.43

From the SangsterLogP compilation
